Source: the supplement of paper PMC9938120

Assays:
Assay in all cases: drug sensitivity score (DSS3, normalised partial AUC of % inhibition dose-response) (DSS (score)); higher = more sensitive (stronger inhibition of viability); extreme values may be limits of the assay
FMOC25_2 = patient-derived low-grade serous ovarian cancer cells; details: 72 h; library: FO5A; assay format: 2D, 384-well, CellTiter-Glo
Outline: (§1)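 Patient-derived ovarian cancer cells (early passage, under 10) were dispensed onto 384-well flat clear-bottom plates pre-plated with compounds at five concentrations covering a 10,000-fold range. Plates were incubated 72 h at 37 °C, 5% CO2, and viability was read with CellTiter-Glo. Data were processed in Breeze. The drug sensitivity score (DSS3) is a partial area under the percent-inhibition dose-response curve, divided by the log of the upper asymptote; higher means more sensitive.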

FMOC22 = patient-derived mucinous ovarian cancer cells; details: 72 h; library: FO5A; assay format: 2D, 384-well, CellTiter-Glo
Outline: as §1

FMOC06 = patient-derived mucinous ovarian cancer cells; details: 72 h; library: FO5A; assay format: 2D, 384-well, CellTiter-Glo
Outline: as §1

FMOC02_2 = patient-derived low-grade serous ovarian cancer cells; details: 72 h; library: FO5A; assay format: 2D, 384-well, CellTiter-Glo
Outline: as §1

FMOC02_3 = patient-derived low-grade serous ovarian cancer cells; details: 72 h; library: FO5A; assay format: 2D, 384-well, CellTiter-Glo
Outline: as §1

FMOC09 = patient-derived high-grade serous ovarian cancer cells; details: 72 h; library: FO5A; assay format: 2D, 384-well, CellTiter-Glo
Outline: as §1

FMOC14 = patient-derived high-grade serous ovarian cancer cells; details: 72 h; library: FO5A; assay format: 2D, 384-well, CellTiter-Glo
Outline: as §1

FMOC03 = patient-derived mucinous ovarian cancer cells; details: 72 h; library: FO5A; assay format: 2D, 384-well, CellTiter-Glo
Outline: as §1

FMOC24 = patient-derived high-grade serous ovarian cancer cells; details: 72 h; library: FO5A; assay format: 2D, 384-well, CellTiter-Glo
Outline: as §1

FMOC25_1 = patient-derived low-grade serous ovarian cancer cells; details: 72 h; library: FO4B; assay format: 2D, 384-well, CellTiter-Glo
Outline: as §1

Row | Structure (SMILES) | drug sensitivity score (FMOC25_2) | drug sensitivity score (FMOC22) | drug sensitivity score (FMOC06) | drug sensitivity score (FMOC02_2) | drug sensitivity score (FMOC02_3) | drug sensitivity score (FMOC09) | drug sensitivity score (FMOC14) | drug sensitivity score (FMOC03) | drug sensitivity score (FMOC24) | drug sensitivity score (FMOC25_1)
1 | NC(=O)Nc1cc(-c2cccc(F)c2)sc1C(=O)N[C@H]1CCCNC1 [AZD7762] | 4.5 | 3.3 | 3.6 | 3.5 | 6.1 | 6.3 | 6.2 | 1.5 | 9.15 | 3.3
2 | CC(C)(C)C[C@@H]1N[C@@H](C(=O)N[C@H]2CC[C@H](O)CC2)[C@H](c2cccc(Cl)c2F)[C@]12C(=O)Nc1cc(Cl)ccc12 | 8.4 | 3.5 | 3.3 | 10.3 | 17.9 | 1.6 | 1.6 | 3.1 | 3.4 | 9.9
3 | CO[C@@H]1[C@H](N(C)C(=O)c2ccccc2)C[C@H]2O[C@]1(C)n1c3ccccc3c3c4c(c5c6ccccc6n2c5c31)C(=O)NC4 [Midostaurin] | 21.2 | 4.5 | 9.1 | 21.7 | 16.9 | 10.6 | 3 | 5 | 9.3 | 14.5
4 | CC(C)c1cc(-c2n[nH]c(=O)n2-c2ccc3c(ccn3C)c2)c(O)cc1O [Ganetespib] | 17.5 | 14.3 | 3.3 | 16.2 | 19.7 | 12.3 | 10.9 | 11.3 | 8.9 | 11.6
5 | CCOC(=O)CCNc1cc(N2CCc3ccccc3CC2)nc(-c2ccccn2)n1 [GSK-J4] | 7.5 | 4.3 | 4 | 0 | 3.2 | 0 | 1.3 | 3.2 | 3.9 | 6.7
6 | S=c1[nH]cnc2nc[nH]c12 [Mercaptopurine] | 1.8 | 0 | 0.3 | 0.2 | 0 | 0 | 0 | 0 | 0.85 | 1.6
7 | CC1(C)CCC(c2ccc(Cl)cc2)=C(CN2CCN(c3ccc(C(=O)NS(=O)(=O)c4ccc(N[C@H](CCN5CCOCC5)CSc5ccccc5)c(S(=O)(=O)C(F)(F)F)c4)cc3)CC2)C1 [Navitoclax] | 23.2 | 4.8 | 6.6 | 21.7 | 21.9 | 0 | 7.3 | 6.9 | 21.1 | 14.7
8 | O=C1c2c(O)ccc(O)c2C(=O)c2c(NCCNCCO)ccc(NCCNCCO)c21 [Mitoxantrone] | 7 | 6 | 1.9 | 4 | 5.9 | 8.8 | 3.2 | 2.7 | 3.45 | 0.3
9 | CCN(CC)CCCC(C)Nc1c2ccc(Cl)cc2nc2ccc(OC)cc12 (stereo not given) [Mepacrine] | 10.9 | 9.2 | 10 | 19.4 | 19.4 | 10.3 | 9.8 | 9.5 | 20.2 | 10.3
10 | CO[C@@H](C(=O)N1Cc2[nH]nc(NC(=O)c3ccc(N4CCN(C)CC4)cc3)c2C1)c1ccccc1 [Danusertib] | 8 | 0 | 4.7 | 5.7 | 10.1 | 8.7 | 1.4 | 4.7 | 4.3 | 3.1
11 | CO[C@H]1C(=O)[C@]2(C)[C@@H](OC)C[C@H]3OC[C@@]3(OC(C)=O)[C@H]2[C@H](OC(=O)c2ccccc2)[C@]2(O)C[C@H](OC(=O)[C@H](O)[C@@H](NC(=O)OC(C)(C)C)c3ccccc3)C(C)=C1C2(C)C [Cabazitaxel] | 17.3 | 15.2 | 11.3 | 12.6 | 19.9 | 13.5 | 0 | 16 | 0.3 | 12
12 | CN1CCC(CNc2ccc3ncc(-c4cccc(OC(F)(F)F)c4)n3n2)CC1 [SGI-1776] | 7.4 | 5.9 | 6.5 | 9.2 | 8.8 | 4.5 | 5 | 6.1 | 8.05 | 7.4
13 | O=C(/C=C\n1cnc(-c2cc(C(F)(F)F)cc(C(F)(F)F)c2)n1)NNc1cnccn1 [Selinexor] | 21.4 | 18.9 | 21.6 | 15.8 | 18.2 | 12.8 | 10.7 | 12.3 | 21.5 | 15.1
14 | CCCCCCCCc1ccc(CCC(N)(CO)CO)cc1 [Fingolimod] | 5.7 | 5.3 | 7 | 7.7 | 6.1 | 6 | 7.3 | 5.1 | 10.8 | 6.2
15 | COc1cc(OC)c(/C=C/S(=O)(=O)Cc2ccc(OC)c(NCC(=O)O)c2)c(OC)c1 [Rigosertib] | 12 | 16.1 | 14.3 | 16.4 | 20.5 | 15.4 | 0.1 | 18.2 | 6.5 | 14.3
16 | Nc1nc2[nH]cnc2c(=S)[nH]1 [Thioguanine] | 6.3 | 0 | 0 | 3.2 | 4.3 | 0 | 0 | 0 | 0.95 | 5.3
17 | Oc1nc(-c2ccc(C(F)(F)F)cc2)nc2c1CSCC2 [XAV-939] | 9.9 | 0 | 0.5 | 8.5 | 6 | 0 | 2.1 | 1.7 | 3.55 | 6.9
18 | CC/C(=C(\c1ccc(O)cc1)c1ccc(OCCN(C)C)cc1)c1ccccc1 [4-hydroxytamoxifen] | 3.2 | 5.7 | 7.3 | 6.8 | 6.4 | 5.1 | 6.1 | 6.1 | 7.3 | 2

Row | Structure (SMILES) | drug sensitivity score (FMOC25_2) | drug sensitivity score (FMOC22) | drug sensitivity score (FMOC06) | drug sensitivity score (FMOC02_2) | drug sensitivity score (FMOC02_3) | drug sensitivity score (FMOC09) | drug sensitivity score (FMOC14) | drug sensitivity score (FMOC03) | drug sensitivity score (FMOC24) | drug sensitivity score (FMOC25_1)
19 | Nc1ncn([C@@H]2O[C@H](CO)[C@@H](O)[C@H]2O)c(=O)n1 [Azacitidine] | 3 | 3.7 | 1.3 | 5.7 | 4.7 | 4.1 | 5 | 1.8 | 14.2 | 3.2
20 | COc1cc(Br)c(Nc2nc(-c3c(C)nc4ncccn34)cs2)c(Br)c1 [PTC-209] | 8.4 | 4.5 | 3.5 | 5.5 | 4.6 | 6 | 2.7 | 4.6 | 1.35 | 6.3
21 | Nc1ccccc1NC(=O)c1ccc(CNC(=O)OCc2cccnc2)cc1 [Entinostat] | 3.7 | 5 | 7.6 | 8.6 | 7.5 | 1.6 | 8.6 | 8.2 | 8.4 | 4.3
22 | CCc1cncnc1N1CCN(Cc2nc3ccc(C(F)(F)F)cc3[nH]2)CC1 | 6.2 | 1.3 | 0.5 | 3.9 | 5.3 | 0.1 | 1.3 | 0.8 | 5.2 | 1.3
23 | CCc1c2c(nc3ccc(O)cc13)-c1cc3c(c(=O)n1C2)COC(=O)[C@]3(O)CC [SN-38] | 29.1 | 31 | 21.8 | 21.3 | 32.5 | 15.1 | 20.4 | 20.2 | 24.8 | 24.4
24 | CON(C)C(=O)N1N=C(c2cc(F)ccc2F)S[C@@]1(CCCN)c1ccccc1 [Filanesib] | 12 | 6.3 | 0 | 6.8 | 12.7 | 7.5 | 0 | 4.4 | 0 | 6.1
25 | CC(=O)[C@]1(O)Cc2c(O)c3c(c(O)c2[C@@H](O[C@H]2C[C@H](N)[C@H](O)[C@H](C)O2)C1)C(=O)c1ccccc1C3=O [Idarubicin] | 9.1 | 7 | 5.8 | 7.8 | 9.1 | 6.3 | 6.1 | 4.8 | 9.4 | 9.2
26 | CN(C)Cc1c(C(=O)NCCOc2ccc(C(=O)NO)cc2)oc2ccccc12 [Abexinostat] | 14.2 | 8.5 | 11.7 | 16.6 | 14 | 5.9 | 13.5 | 12.7 | 15.3 | 13.3
27 | O=C(/C=C/c1cccc(S(=O)(=O)Nc2ccccc2)c1)NO [Belinostat] | 10.5 | 9.9 | 11.9 | 12.3 | 10.3 | 6.4 | 16 | 13.6 | 11.4 | 10.8
28 | COc1cc(N2CCC(N3CCN(C)CC3)CC2)ccc1Nc1ncnc(Nc2ccccc2S(=O)(=O)C(C)C)n1 [ASP3026] | 8.6 | 4 | 4.9 | 9.8 | 8.1 | 7.2 | 0.8 | 4 | 5.1 | 5.2
29 | CNC(=O)CN1CCC(Oc2cc3c(Nc4cccc(Cl)c4F)ncnc3cc2OC)CC1 [Sapitinib] | 10 | 0.9 | 0.3 | 14 | 13.8 | 10.4 | 4.2 | 14.7 | 0.2 | 9.4
30 | O=C(NC1CCNCC1)c1n[nH]cc1NC(=O)c1c(Cl)cccc1Cl [AT7519] | 21.3 | 10 | 16.3 | 17.8 | 22.1 | 12.3 | 12.5 | 12.1 | 15.2 | 17.6
31 | CN(Cc1cnc2nc(N)nc(N)c2n1)c1ccc(C(=O)N[C@@H](CCC(=O)O)C(=O)O)cc1 [Methotrexate] | 0.2 | 0 | 0 | 0 | 0 | 0 | 0 | 0 | 0 | 0
32 | CNC(=O)c1ccccc1Nc1cc(Nc2ccc(N3CCOCC3)cc2OC)ncc1C(F)(F)F [VS-4718] | 12.6 | 6 | 9.6 | 12 | 13.8 | 11.5 | 0.7 | 4.2 | 3.2 | 6.1
33 | CCCCc1nc2cc(/C=C/C(=O)NO)ccc2n1CCN(CC)CC [Pracinostat] | 10.7 | 8.7 | 12.7 | 13.3 | 13.3 | 5.8 | 12.4 | 12.3 | 14.8 | 11.6
34 | CN1CC[C@H](c2c(O)cc(O)c3c(=O)cc(-c4ccccc4Cl)oc23)[C@H](O)C1 [Alvocidib] | 19.6 | 12.8 | 17 | 21.3 | 22.4 | 10.7 | 15.3 | 17.9 | 18.7 | 19.1
35 | C=CC(=O)Nc1cccc(Nc2nc(Nc3ccc(N4CCN(C(C)=O)CC4)cc3OC)ncc2C(F)(F)F)c1 [Rociletinib] | 9.4 | 5.2 | 6.7 | 12.4 | 11.7 | 8.4 | 5.2 | 8.7 | 2.45 | 9.2
